Measurements: patent publication US20040152741A1, “Arylglycine derivatives and their use as glycine transport inhibitors” (NPS Allelix Corporation, priority 2002, published 2004)

Target: T1, GlyT-1 C (Homo sapiens, UniProt P48067)
T1 construct: expressed in transfected cells; QT-6 quail fibroblast cells are called preferred
T1 sequence (P48067 1-706): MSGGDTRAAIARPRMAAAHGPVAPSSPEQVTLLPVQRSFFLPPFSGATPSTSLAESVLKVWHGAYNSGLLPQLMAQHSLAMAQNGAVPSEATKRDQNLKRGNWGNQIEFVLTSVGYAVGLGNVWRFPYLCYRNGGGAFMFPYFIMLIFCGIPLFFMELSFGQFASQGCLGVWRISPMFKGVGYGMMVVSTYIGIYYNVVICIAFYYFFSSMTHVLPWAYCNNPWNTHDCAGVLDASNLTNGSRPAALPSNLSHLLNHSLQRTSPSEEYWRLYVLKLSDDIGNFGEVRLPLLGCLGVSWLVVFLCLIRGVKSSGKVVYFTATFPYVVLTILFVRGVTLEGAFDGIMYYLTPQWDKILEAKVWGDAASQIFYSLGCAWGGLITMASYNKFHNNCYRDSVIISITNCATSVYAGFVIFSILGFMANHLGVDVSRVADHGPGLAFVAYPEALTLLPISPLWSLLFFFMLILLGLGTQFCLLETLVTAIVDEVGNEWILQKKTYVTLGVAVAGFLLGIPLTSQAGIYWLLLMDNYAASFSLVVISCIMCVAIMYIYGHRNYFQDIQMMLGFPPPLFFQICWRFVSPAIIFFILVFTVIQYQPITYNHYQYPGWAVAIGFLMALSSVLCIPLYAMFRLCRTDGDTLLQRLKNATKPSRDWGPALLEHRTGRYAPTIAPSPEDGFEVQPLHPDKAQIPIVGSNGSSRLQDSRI
Test: Assay of transport via GlyT-1: [3H]glycine uptake by stably transfected cells
Assay type: cell-based
Conditions: cells stably transfected with GlyT-1 C; 50 nM [3H]glycine, 30 minutes at 37° C.; read-out: GlyT1 uptake IC50
From the text: For use in assaying for activity in inhibiting glycine transport, eukaryokic cells, preferably QT-6 cells derived from quail fibroblasts, have been transfected to express one of the three known variants of human GlyT-1, namely GlyT-1a, GlyT-1b or GlyT-1c, or human GlyT-2. The sequences of these GlyT-1 transporters are described in Kim et al., Molec. Pharm. 45: 608-617, 1994, excepting that the sequence encoding the extreme N-terminal of GlyT-1a was merely inferred from the corresponding rat-derived sequence. This N-terminal protein-encoding sequence has now been confirmed to correspond to that inferred by Kim et al. The sequence of the human GlyT-2 is described by Albert et al., U.S. Pat. No. 919,653 issued July 1999, which is incorporated herein by reference in its entirety. Suitable expression vectors include pRc/CMV (Invitrogen), Zap Express Vector (Stratagene Cloning Systems, LaJolla, Calif.; hereinafter “Stratagene”), pBk/CMV or pBk-RSV vectors (Stratagene), Bluescript II SK +/− Phagemid Vectors (Stratagene), LacSwitch (Stratagene), pMAM and pMAM neo (Clontech), among others. A suitable expression vector is capable of fostering expression of the included GlyT DNA in a suitable host cell, preferably a non-mammalian host cell, which can be eukaryotic, fungal, or prokaryotic. Such preferred host cells include amphibian, avian, fungal, insect, and reptilian cells.
This example illustrates a method for the measurement of glycine uptake by transfected cultured cells.
Cells stably transfected with GlyT-1 C (see Kim, et al., Molecular Pharmacology, 45, 1994:608-617) were washed twice with HEPES buffered saline (HBS). The cells were then incubated for 10 minutes at 37° C. with either (a) no potential competitor, (b) 10 mM non-radioactive glycine or (c) a concentration of a candidate drug. A range of concentrations of the candidate drug was used to generate data for calculating the concentration resulting in 50% of the effect (e.g., the IC50s, which are the concentrations of drug inhibiting glycine uptake by 50%). A solution was then added containing [^3H]glycine at a final concentration of 50 nM (17.5 Ci/mmol). The cells were then incubated with gentle shaking for another 30 minutes at 37° C., after which the reaction mixture was aspirated and washed three times with ice-cold HBS. The cells were lysed with scintillant and allowed to equilibrate. The radioactivity in the cells was determined using a scintillation counter. Data was compared between the same cells contacted or not contacted by a candidate agent, depending on the assay being conducted.

## COc1ccc([N+](=O)[O-])cc1NC(=S)NC(C(=O)Nc1ccc(C)c(C)c1)c1ccccc1 (stereo not shown) [Experiment E32.2, 2-[3-(2-methoxy-5-nitro-phenyl)-thioureido]-N-(3,4-dimethylphenyl)-2-phenyl acetamide]
  IC50: 334 nM

## COc1ccc([N+](=O)[O-])cc1NC(=O)NC(C(=O)Nc1ccc2c(c1)CCC2)c1ccsc1 (stereo not shown) [Experiment E42.1]
  IC50: 114 nM

## COc1ccc([N+](=O)[O-])cc1NC(=S)N[C@@H](C(=O)Nc1ccc(C)c(C)c1)c1ccccc1 [E33.1*, (R)-2-[3-(2-methoxy-5-nitro-phenyl)-thioureido]-N-(3,4-dimethylphenyl)-2-phenyl acetamide]
  IC50: 96 nM

## COc1ccc([N+](=O)[O-])cc1NC(=O)NC(C(=O)Nc1cccc(C(F)(F)F)c1)c1ccccc1 (stereo not shown) [Experiment E31.2, 2-[3-(2-methoxy-5-nitro-phenyl)-ureido]-N-(3-trifluoromethylphenyl)-2-phenyl acetamide]
  IC50: 202 nM

## COc1ccc([N+](=O)[O-])cc1NC(=O)N[C@@H](C(=O)Nc1ccc2c(c1)CCC2)c1ccccc1 [E29.1*]
  IC50: 71.9 nM

## COc1ccc([N+](=O)[O-])cc1NC(=S)NC(C(=O)Nc1ccc2c(c1)CCC2)c1ccsc1 (stereo not shown) [Experiment E42.2]
  IC50: 131 nM

## COc1ccc([N+](=O)[O-])cc1NC(=O)N[C@@H](C(=O)Nc1ccc(C)c(C)c1)c1ccccc1 [Experiment E32.5, (R)-2-[3-(2-methoxy-5-nitro-phenyl)-ureido]-N-(3,4-dimethylphenyl)-2-phenyl acetamide]
  IC50: 25.9 nM
